Patent publication US10952433B2, “Solutions for enhancing the effectiveness of insecticides and fungicides on living plants and related methods” (priority 2015, dated 2021)
Where two headings read alike, the source gives them in different places.

Legend:
[1] = system: lepidopteran larvae: cabbage loopers (Trichoplusia ni) and beet armyworms (Spodoptera exigua); assay type: in vivo; settings: plants
Outline: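 Romaine lettuce plants 2-3 inches tall were sprayed with 10 mL of insecticide (ppm) with buffer, amine oxide or buffered amine oxide at 200:1, then infested with 15 T. ni and 15 S. exigua larvae (5th-6th instar) per container. Leaf surface damage scored visually in 5% increments after 24 h.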

[2] = system: lepidopteran larvae: cabbage loopers (Trichoplusia ni) and beet armyworms (Spodoptera exigua); assay type: in vivo; settings: leaf discs
Outline: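 Romaine lettuce leaf discs (⅝ inch) dipped about one second in treatment solution and infested with four cabbage loopers and four beet armyworms (3rd-4th instar) per container. Held dark at 15 °C, 80% RH; percent disc-area damage scored visually in 5% increments at 24, 48 and 72 h.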

[3] = insecticide + CO3 buffer 200:1, no amine oxide, PPM: Chlorantranilopril 60, Acephate 70, Methoxyfenozide 100, Spinosad 30, Permethrin 10, Indoxacarb 50
[4] = insecticide + PO4 buffer 200:1, no amine oxide, PPM: Chlorantranilopril 60, Acephate 70, Methoxyfenozide 100, Spinosad 30, Permethrin 10, Indoxacarb 50
[5] = insecticide + amine oxide 12, no buffer, 200:1, PPM: Chlorantranilopril 60, Acephate 70, Methoxyfenozide 100, Spinosad 30, Permethrin 10, Indoxacarb 50
[6] = insecticide + amine oxide 1218, no buffer, 200:1, PPM: Chlorantranilopril 60, Acephate 70, Methoxyfenozide 100, Spinosad 30, Permethrin 10, Indoxacarb 50
[7] = insecticide + buffered amine oxide system CO3, 12, 200:1, PPM: Chlorantranilopril 60, Acephate 70, Methoxyfenozide 100, Spinosad 30, Permethrin 10, Indoxacarb 50
[8] = insecticide + buffered amine oxide system CO3, 1218, 200:1, PPM: Chlorantranilopril 60, Acephate 70, Methoxyfenozide 100, Spinosad 30, Permethrin 10, Indoxacarb 50
[9] = insecticide + buffered amine oxide system PO4, 12, 200:1, PPM: Chlorantranilopril 60, Acephate 70, Methoxyfenozide 100, Spinosad 30, Permethrin 10, Indoxacarb 50
[10] = insecticide + buffered amine oxide system PO4, 1218, 200:1, PPM: Chlorantranilopril 60, Acephate 70, Methoxyfenozide 100, Spinosad 30, Permethrin 10, Indoxacarb 50
[11] = insecticide alone, highest, PPM: Chlorantranilopril 120, Acephate 140, Methoxyfenozide 200, Spinosad 60, Permethrin 20, Indoxacarb 100
[12] = insecticide alone, increased, PPM: Chlorantranilopril 90, Acephate 105, Methoxyfenozide 150, Spinosad 45, Permethrin 15, Indoxacarb 75
[13] = insecticide alone, PPM: Chlorantranilopril 60, Acephate 70, Methoxyfenozide 100, Spinosad 30, Permethrin 10, Indoxacarb 50

## COc1cccc(C(=O)NN(C(=O)c2cc(C)cc(C)c2)C(C)(C)C)c1C [Methoxyfenozide]
[1]; [3]
  Percent Lepidopteran Damage to Romaine Lettuce 24 hr: 13.5%
[1]; [4]
  Percent Lepidopteran Damage to Romaine Lettuce 24 hr: 22.0%
[1]; [5]
  Percent Lepidopteran Damage to Romaine Lettuce 24 hr: 28.0%
[1]; [6]
  Percent Lepidopteran Damage to Romaine Lettuce 24 hr: 13.0%
[1]; [7]
  Percent Lepidopteran Damage to Romaine Lettuce 24 hr: 8.0%
[1]; [8]
  Percent Lepidopteran Damage to Romaine Lettuce 24 hr: 9.0%
[1]; [9]
  Percent Lepidopteran Damage to Romaine Lettuce 24 hr: 7.5%
[1]; [10]
  Percent Lepidopteran Damage to Romaine Lettuce 24 hr: 4.5%
[1]; [11]
  Percent Lepidopteran Damage to Romaine Lettuce 24 hr: 23.5%
[1]; [12]
  Percent Lepidopteran Damage to Romaine Lettuce 24 hr: 43.0%
[1]; [13]
  Percent Lepidopteran Damage to Romaine Lettuce 24 hr: 29.5%
[2]; [3]
  Percent Lepidopteran Damage to Romaine Lettuce 24 hr: 96.0%
  Percent Lepidopteran Damage to Romaine Lettuce 48 hr: 99.5%
  Percent Lepidopteran Damage to Romaine Lettuce 72 hr: 100.0%
[2]; [4]
  Percent Lepidopteran Damage to Romaine Lettuce 24 hr: 100.0%
  Percent Lepidopteran Damage to Romaine Lettuce 48 hr: 100.0%
  Percent Lepidopteran Damage to Romaine Lettuce 72 hr: 100.0%
[2]; [5]
  Percent Lepidopteran Damage to Romaine Lettuce 24 hr: 79.5%
  Percent Lepidopteran Damage to Romaine Lettuce 48 hr: 82.5%
  Percent Lepidopteran Damage to Romaine Lettuce 72 hr: 87.0%
[2]; [6]
  Percent Lepidopteran Damage to Romaine Lettuce 24 hr: 72.0%
  Percent Lepidopteran Damage to Romaine Lettuce 48 hr: 80.5%
  Percent Lepidopteran Damage to Romaine Lettuce 72 hr: 87.5%
[2]; [7]
  Percent Lepidopteran Damage to Romaine Lettuce 24 hr: 42.5%
  Percent Lepidopteran Damage to Romaine Lettuce 48 hr: 51.5%
  Percent Lepidopteran Damage to Romaine Lettuce 72 hr: 57.0%
[2]; [8]
  Percent Lepidopteran Damage to Romaine Lettuce 24 hr: 43.0%
  Percent Lepidopteran Damage to Romaine Lettuce 48 hr: 67.0%
  Percent Lepidopteran Damage to Romaine Lettuce 72 hr: 73.5%
[2]; [9]
  Percent Lepidopteran Damage to Romaine Lettuce 24 hr: 54.5%
  Percent Lepidopteran Damage to Romaine Lettuce 48 hr: 67.5%
  Percent Lepidopteran Damage to Romaine Lettuce 72 hr: 73.0%
[2]; [10]
  Percent Lepidopteran Damage to Romaine Lettuce 24 hr: 85.0%
  Percent Lepidopteran Damage to Romaine Lettuce 48 hr: 87.0%
  Percent Lepidopteran Damage to Romaine Lettuce 72 hr: 88.0%
[2]; [11]
  Percent Lepidopteran Damage to Romaine Lettuce 24 hr: 100.0%
  Percent Lepidopteran Damage to Romaine Lettuce 48 hr: 100.0%
  Percent Lepidopteran Damage to Romaine Lettuce 72 hr: 100.0%
[2]; [12]
  Percent Lepidopteran Damage to Romaine Lettuce 24 hr: 100.0%
  Percent Lepidopteran Damage to Romaine Lettuce 48 hr: 100.0%
  Percent Lepidopteran Damage to Romaine Lettuce 72 hr: 100.0%
[2]; [13]
  Percent Lepidopteran Damage to Romaine Lettuce 24 hr: 84.0%
  Percent Lepidopteran Damage to Romaine Lettuce 48 hr: 94.0%
  Percent Lepidopteran Damage to Romaine Lettuce 72 hr: 96.0%

## Spinosad
[1]; [3]
  Percent Lepidopteran Damage to Romaine Lettuce 24 hr: 17.0%
[1]; [4]
  Percent Lepidopteran Damage to Romaine Lettuce 24 hr: 20.5%
[1]; [5]
  Percent Lepidopteran Damage to Romaine Lettuce 24 hr: 24.5%
[1]; [6]
  Percent Lepidopteran Damage to Romaine Lettuce 24 hr: 22.5%
[1]; [7]
  Percent Lepidopteran Damage to Romaine Lettuce 24 hr: 12.5%
[1]; [8]
  Percent Lepidopteran Damage to Romaine Lettuce 24 hr: 9.5%
[1]; [9]
  Percent Lepidopteran Damage to Romaine Lettuce 24 hr: 10.0%
[1]; [10]
  Percent Lepidopteran Damage to Romaine Lettuce 24 hr: 6.5%
[1]; [11]
  Percent Lepidopteran Damage to Romaine Lettuce 24 hr: 19.0%
[1]; [12]
  Percent Lepidopteran Damage to Romaine Lettuce 24 hr: 17.0%
[1]; [13]
  Percent Lepidopteran Damage to Romaine Lettuce 24 hr: 28.5%
[2]; [3]
  Percent Lepidopteran Damage to Romaine Lettuce 24 hr: 25.5%
  Percent Lepidopteran Damage to Romaine Lettuce 48 hr: 28.0%
  Percent Lepidopteran Damage to Romaine Lettuce 72 hr: 29.0%
[2]; [4]
  Percent Lepidopteran Damage to Romaine Lettuce 24 hr: 20.0%
  Percent Lepidopteran Damage to Romaine Lettuce 48 hr: 28.5%
  Percent Lepidopteran Damage to Romaine Lettuce 72 hr: 33.0%
[2]; [5]
  Percent Lepidopteran Damage to Romaine Lettuce 24 hr: 30.5%
  Percent Lepidopteran Damage to Romaine Lettuce 48 hr: 35.5%
  Percent Lepidopteran Damage to Romaine Lettuce 72 hr: 36.0%
[2]; [6]
  Percent Lepidopteran Damage to Romaine Lettuce 24 hr: 15.0%
  Percent Lepidopteran Damage to Romaine Lettuce 48 hr: 21.0%
  Percent Lepidopteran Damage to Romaine Lettuce 72 hr: 28.0%
[2]; [7]
  Percent Lepidopteran Damage to Romaine Lettuce 24 hr: 14.0%
  Percent Lepidopteran Damage to Romaine Lettuce 48 hr: 38.0%
  Percent Lepidopteran Damage to Romaine Lettuce 72 hr: 49.5%
[2]; [8]
  Percent Lepidopteran Damage to Romaine Lettuce 24 hr: 10.5%
  Percent Lepidopteran Damage to Romaine Lettuce 48 hr: 29.5%
  Percent Lepidopteran Damage to Romaine Lettuce 72 hr: 35.5%
[2]; [9]
  Percent Lepidopteran Damage to Romaine Lettuce 24 hr: 6.5%
  Percent Lepidopteran Damage to Romaine Lettuce 48 hr: 18.5%
  Percent Lepidopteran Damage to Romaine Lettuce 72 hr: 24.0%
[2]; [10]
  Percent Lepidopteran Damage to Romaine Lettuce 24 hr: 13.0%
  Percent Lepidopteran Damage to Romaine Lettuce 48 hr: 22.0%
  Percent Lepidopteran Damage to Romaine Lettuce 72 hr: 29.5%
[2]; [11]
  Percent Lepidopteran Damage to Romaine Lettuce 24 hr: 24.5%
  Percent Lepidopteran Damage to Romaine Lettuce 48 hr: 34.5%
  Percent Lepidopteran Damage to Romaine Lettuce 72 hr: 36.5%
[2]; [12]
  Percent Lepidopteran Damage to Romaine Lettuce 24 hr: 12.0%
  Percent Lepidopteran Damage to Romaine Lettuce 48 hr: 23.5%
  Percent Lepidopteran Damage to Romaine Lettuce 72 hr: 36.0%
[2]; [13]
  Percent Lepidopteran Damage to Romaine Lettuce 24 hr: 19.0%
  Percent Lepidopteran Damage to Romaine Lettuce 48 hr: 26.5%
  Percent Lepidopteran Damage to Romaine Lettuce 72 hr: 59.0%
